Results from patent US6514692B2, “Method for treatment of immunodeficiency virus infection” (priority 1996, dated 2003).
Values joined by “and” are separate entries in the source; they are usually repeats but may differ in a detail not shown here. Identical values can stand only once. Like-named read-outs stand apart in the source and are kept apart here. Where no end group is shown, it is not given here.

Legend:
SK1 isolate of HIV-1 = test system: SK1 isolate of HIV-1
From the text: (§1) ME180 cells, a cervical epithelial cell line, were obtained from the American Type Culture Collection. These cells were thawed from liquid nitrogen and grown in RPMI 1640 medium supplemented with 10t fetal bovine serum, glutamine and antibiotics. The cells were adherent and were trypsinized (0.5% trypsin in HBSS) to remove them from the flask for passaging and use in assays. For use in the microtiter transmission inhibition assay, ME180 cells were trypsinized, washed and seeded in 96-well flat bottom microtiter plates (COSTAR) at a density of 5×10^3 cells per well. The cells were incubated at 37° C. for 24 hours prior to the tart of the assay. H9 cells chronically infected with he SK1 isolate of HIV-1 were treated with 200 μg/ml mitomycin C for 60 minutes at 37° C. After treatment the cells were washed three times with tissue culture medium. The chronically infected lymphocytes were added to each well at a density of 2×10^4 cells per well. The concentration of mitomycin C used in the treatment of the lymphocytes was chosen to allow lymphocyte survival for the period of time required to transmit virus to the uninfected ME180 cells, but to die prior to the time of assay so as not to contribute to the p24 signal used as the endpoint (see below). In the transmission assay the lytic peptides D4E1 and D2A21, with and without 150 μg/ml pig mucin, were added prior to the addition of chronically infected cells or were mixed with the chronically infected cells prior to their addition to the monolayer of ME180 cells. Mucin was included because it is an abundant constituent of the normal vaginal secretions of a human being, thus any chemotherapeutic agent targeting HIV should be active in its presence if it is to have clinical value. […] The lymphocytes and peptide were co-cultured with the ME180 cells for 6 hours and then removed by washing the ME180 monolayer four times with PBS. The plate was then incubated at 37° C. for six days. Medium was removed and changed every 48 hours during the incubation stage. No further peptide was added after the initial dose. At six days post-co-cultivation, the supernatant was removed from the wells and evaluated for the quantity of p24 antigen by ELISA. The ELISA was performed according to the manufacturer's recommendations. The amount of virus production in wells treated with various concentrations of the peptides was evaluated with appropriate cell and virus controls. Data are reported as a percent of virus control at each drug concentration. Linear regression analysis was used to calculate the […] and IC95 concentrations of the transmission inhibitor. […] TI represents the toxicity index, which is the ratio of the TC50/IC50, and is an indication of the relative concentrations window that exists between efficacy and toxicity.

[1] = toxicity (XTT) in transmission inhibition assay; conditions: human, ME180 cells
From the text: as §1

ME180 cells = test: toxicity (XTT) in transmission inhibition assay; conditions: for TOXICITY VALUES (XTT), single samples: samples 1-3; for TC50 (concentration at which 50% of cells are eliminated): interpolation from % CC
From the text: as §1

[2] = 0.32 μg/ml, with 150 μg/ml pig mucin
[3] = 1 μg/ml, with 150 μg/ml pig mucin
[4] = 3.2 μg/ml, with 150 μg/ml pig mucin
[5] = 10 μg/ml, with 150 μg/ml pig mucin
[6] = 32 μg/ml, with 150 μg/ml pig mucin
[7] = 100 μg/ml, with 150 μg/ml pig mucin

FAKKFAKKFKKFAKKFAKFAFAF [D2A21]
% VC (p24, percent of virus control) (SK1 isolate of HIV-1; 0.32 μg/ml, no mucin): 81.8% | % VC (p24, percent of virus control) (SK1 isolate of HIV-1; [2]): 33.7% | % VC (p24, percent of virus control) (SK1 isolate of HIV-1; 1 μg/ml, no mucin): 67.3% | % VC (p24, percent of virus control) (SK1 isolate of HIV-1; [3]): 27.7% | % VC (p24, percent of virus control) (SK1 isolate of HIV-1; 3.2 μg/ml, no mucin): 40.6% | % VC (p24, percent of virus control) (SK1 isolate of HIV-1; [4]): 18.8% | % VC (p24, percent of virus control) (SK1 isolate of HIV-1; 10 μg/ml, no mucin): 27.4% | % VC (p24, percent of virus control) (SK1 isolate of HIV-1; [5]): 10.1% | % VC (p24, percent of virus control) (SK1 isolate of HIV-1; 32 μg/ml, no mucin): 2.2% | % VC (p24, percent of virus control) (SK1 isolate of HIV-1; [6]): 0.0% | % VC (p24, percent of virus control) (SK1 isolate of HIV-1; 100 μg/ml, no mucin): 0.0% | TI (toxicity index, TC50/IC50) (SK1 isolate of HIV-1; no mucin): TI = 15 | TI (toxicity index, TC50/IC50) (SK1 isolate of HIV-1; with 150 μg/ml pig mucin): TI = 139 | viability at 6 h, 0.32 µg/mL [1]: 97.6% | viability at 6 h, 1 µg/mL [1]: 100% | viability at 6 h, 3.2 µg/mL [1]: 97.6% | viability at 6 h, 10 µg/mL [1]: 95.9% | viability at 6 h, 32 µg/mL [1]: 61% | viability at 6 h, 100 µg/mL [1]: 16.4% | TOXICITY VALUES (XTT), MEAN (ME180 cells; 0.32 μg/ml, no mucin): 0.515 O.D. @ 450/650 nm | TOXICITY VALUES (XTT), single samples (ME180 cells; 0.32 μg/ml, no mucin): 0.541 O.D. @ 450/650 nm and 0.497 O.D. @ 450/650 nm and 0.506 O.D. @ 450/650 nm | % CC (XTT, percent of cell control) (ME180 cells; [2]): 97.6% | TOXICITY VALUES (XTT), MEAN (ME180 cells; [2]): 0.515 O.D. @ 450/650 nm | TOXICITY VALUES (XTT), single samples (ME180 cells; [2]): 0.541 O.D. @ 450/650 nm and 0.497 O.D. @ 450/650 nm and 0.506 O.D. @ 450/650 nm | TOXICITY VALUES (XTT), MEAN (ME180 cells; 1 μg/ml, no mucin): 0.528 O.D. @ 450/650 nm | TOXICITY VALUES (XTT), single samples (ME180 cells; 1 μg/ml, no mucin): 0.550 O.D. @ 450/650 nm and 0.514 O.D. @ 450/650 nm and 0.520 O.D. @ 450/650 nm | % CC (XTT, percent of cell control) (ME180 cells; [3]): 100.1% | TOXICITY VALUES (XTT), MEAN (ME180 cells; [3]): 0.528 O.D. @ 450/650 nm | TOXICITY VALUES (XTT), single samples (ME180 cells; [3]): 0.550 O.D. @ 450/650 nm and 0.514 O.D. @ 450/650 nm and 0.520 O.D. @ 450/650 nm | TOXICITY VALUES (XTT), MEAN (ME180 cells; 3.2 μg/ml, no mucin): 0.515 O.D. @ 450/650 nm | TOXICITY VALUES (XTT), single samples (ME180 cells; 3.2 μg/ml, no mucin): 0.525 O.D. @ 450/650 nm and 0.513 O.D. @ 450/650 nm and 0.506 O.D. @ 450/650 nm | % CC (XTT, percent of cell control) (ME180 cells; [4]): 97.6% | TOXICITY VALUES (XTT), MEAN (ME180 cells; [4]): 0.515 O.D. @ 450/650 nm | TOXICITY VALUES (XTT), single samples (ME180 cells; [4]): 0.525 O.D. @ 450/650 nm and 0.513 O.D. @ 450/650 nm and 0.506 O.D. @ 450/650 nm | TOXICITY VALUES (XTT), MEAN (ME180 cells; 10 μg/ml, no mucin): 0.506 O.D. @ 450/650 nm | TOXICITY VALUES (XTT), single samples (ME180 cells; 10 μg/ml, no mucin): 0.518 O.D. @ 450/650 nm and 0.506 O.D. @ 450/650 nm and 0.491 O.D. @ 450/650 nm | % CC (XTT, percent of cell control) (ME180 cells; [5]): 95.9% | TOXICITY VALUES (XTT), MEAN (ME180 cells; [5]): 0.506 O.D. @ 450/650 nm | TOXICITY VALUES (XTT), single samples (ME180 cells; [5]): 0.518 O.D. @ 450/650 nm and 0.508 O.D. @ 450/650 nm and 0.491 O.D. @ 450/650 nm | TOXICITY VALUES (XTT), MEAN (ME180 cells; 32 μg/ml, no mucin): 0.322 O.D. @ 450/650 nm | TOXICITY VALUES (XTT), single samples (ME180 cells; 32 μg/ml, no mucin): 0.342 O.D. @ 450/650 nm and 0.315 O.D. @ 450/650 nm and 0.308 O.D. @ 450/650 nm | % CC (XTT, percent of cell control) (ME180 cells; [6]): 61.04% | TOXICITY VALUES (XTT), MEAN (ME180 cells; [6]): 0.322 O.D. @ 450/650 nm | TOXICITY VALUES (XTT), single samples (ME180 cells; [6]): 0.342 O.D. @ 450/650 nm and 0.315 O.D. @ 450/650 nm and 0.308 O.D. @ 450/650 nm | TOXICITY VALUES (XTT), MEAN (ME180 cells; 100 μg/ml, no mucin): 0.087 O.D. @ 450/650 nm | TOXICITY VALUES (XTT), single samples (ME180 cells; 100 μg/ml, no mucin): 0.061 O.D. @ 450/650 nm and 0.083 O.D. @ 450/650 nm and 0.096 O.D. @ 450/650 nm | % CC (XTT, percent of cell control) (ME180 cells; [7]): 16.4% | TOXICITY VALUES (XTT), MEAN (ME180 cells; [7]): 0.087 O.D. @ 450/650 nm | TOXICITY VALUES (XTT), single samples (ME180 cells; [7]): 0.081 O.D. @ 450/650 nm and 0.083 O.D. @ 450/650 nm and 0.096 O.D. @ 450/650 nm | TC50 (concentration at which 50% of cells are eliminated) (ME180 cells; no mucin): TC50 = 39 μg/ml | TC50 (concentration at which 50% of cells are eliminated) (ME180 cells; with 150 μg/ml pig mucin): TC50 39 μg/ml
